According to patent US20230355632A1, “DEUTERATED PARAXANTHINE AND USES THEREOF” (Lennham Pharmaceuticals, Inc., priority 2020, published 2023):

What was measured:
[1] = Pharmacokinetic (PK) study in Sprague-Dawley rats, plasma, oral (gavage) dose; assay type: in vivo; details: rat; for AUC(0-t) / Cmax / Tmax: plasma, single oral (gavage) dose, fasted male Sprague Dawley rats, target dose 30 mg/kg (paraxanthine-d6 31 mg/kg, adjusted for MW)
Method: Two groups of fasted male Sprague-Dawley rats (12 animals per group) may be administered an oral single dose of paraxanthine in deionized water (Group 1) or paraxanthine-d6 (a compound of Formula (Ia)), in deionized water (Group 2) at a target dose level of […]. Serial blood samples may be collected from three animals per group per timepoint prior to dosing and at 0.25, 0.5, 1, 2, 3 4, 6, 8, 10, 12, and 14-hours post dose. No more than three blood samples may be collected from individual animals with the last sample being a terminal blood draw. Terminal brain samples may be collected from three animals per group at 1, 4, 8, and 14-hours post dose. Blood samples may be collected into tubes containing sodium heparin, and then processed for plasma and stored frozen until bioanalysis. Brain samples may be collected following the terminal blood collection, rinsed with saline, and stored frozen until bioanalysis. Plasma and brain samples may be analyzed for paraxanthine and paraxanthine-d6 (a compound of Formula (Ia)) concentration using a liquid chromatography-tandem mass spectrometry (LC-MS/MS) method. Non-compartmental pharmacokinetic parameter estimates may be calculated from the mean plasma concentration-time data. A pharmacokinetic (PK) study was conducted in Sprague-Dawley rats. Mean pharmacokinetic parameter estimates in plasma for paraxanthine and paraxanthine-d6 (a compound of Formula (Ia)) following an oral dose of paraxanthine or D6-paraxanthine to male Sprague-Dawley rats are reported in Table 1. […] The dose level for paraxanthine-d6 (a compound of Formula (Ia)) was adjusted to account for molecular weight differences between paraxanthine (MW=180.17) and paraxanthine-d6 (MW=186.2).

[2] = Human pharmacokinetic (PK) crossover study of caffeine versus d9-caffeine; plasma metabolites paraxanthine / paraxanthine-d6; assay type: in vivo; details: for elimination ½ life: estimated, over both dose levels (0.26 and 1.29 mmol caffeine or d9-caffeine), as metabolite in human plasma; for AUC(0-t) / Cmax / Tmax / half-life: human, plasma, plasma metabolite, arithmetic mean, healthy adults
Method: A double-blind, randomized, two-part, two-period crossover study was conducted to evaluate the pharmacokinetics of caffeine versus d9-caffeine (depicted as compound 14 within U.S. Pat. No. 10,582,716, the disclosure of which is incorporated herein by reference) and their respective metabolites at two dose levels in 20 healthy adult volunteers. A single dose of 50 mg (0.26 mmol) or 250 mg (1.29 mmol) of caffeine, or a molar-equivalent dose of d9-caffeine, were administered in aqueous solution with blood samples collected for up to 48 hours post-dose. Plasma concentrations of parent and metabolites were analyzed using validated LC-MS/MS methods. The pharmacokinetic parameters of the primary caffeine metabolite, paraxanthine, and its respective counterpart, paraxanthine-d6, were analyzed and are reported in Table 2. The elimination ½ life of paraxanthine was estimated at 5-8 hours, consistent with published literature. The elimination ½ life of paraxathine-d6 was estimated at >18-22 hours, a […] difference. […] The data from this study supports the administration of paraxanthine-d6 once daily to humans to prevent or treat various diseases and conditions.

[3] = single dose 0.26 mmol caffeine (paraxanthine) or 0.26 mmol d9-caffeine (paraxanthine-d6)
[4] = single dose 1.29 mmol caffeine (paraxanthine) or 1.29 mmol d9-caffeine (paraxanthine-d6)

Compound | AUC(0-t) [1] [µg·h/mL] | Cmax [1] [ng/mL] | Tmax [1] [min] | elimination ½ life [2] [h] | AUC(0-t) [2, 3] [µM·h] | Cmax [2, 3] [nM] | Tmax [2, 3] [h] | half-life [2, 3] [min] | AUC(0-t) [2, 4] [µM·h] | Cmax [2, 4] [nM] | Tmax [2, 4] [h] | half-life [2, 4] [min] | elimination ½ life of paraxanthine-d6 compared with paraxanthine ([1]; in vivo)
Cn1c(=O)[nH]c2ncn(C)c2c1=O [Paraxanthine, paraxanthine] | 170 | 38900 | 30 | 5 to 8 | 31.5 | 1620 | 8.22 | 455 | 122 | 7170 | 7.5 | 344 | –
[2H]C([2H])([2H])n1c(=O)[nH]c2ncn(C([2H])([2H])[2H])c2c1=O [Paraxanthine-d6, paraxanthine-d6] | 196 | 42400 | 30 | 18 to 22 | 110 | 2900 | 21.1 | > 1080 | 110 | 2900 | 21.1 | > 1320 | no difference
